In a melting point compilation (Tetko et al.; mined from patent text by program, amines drawn as free bases though some values may be those of a salt):

Compared with `O=C(O)CCC(=O)Oc1ccc(N(CCCl)CCCl)cc1`, `CCCCCCCCCCCCCCOc1ccc(CC(=O)Cl)cc1` is lower in melting point: 98 to 100 °C for the first, 78 to 80 °C for the second.

Compared with `CCOC(=O)C1=C(c2ccccc2)Nc2n[nH]cc2C1c1ccccc1Cl` (stereo not given), `CCOC(=O)c1nc(-c2ccccc2)c(-c2ccc(=O)n(C(C)C)n2)s1` is lower in melting point: 214 °C for the first, 153 to 154 °C for the second.

First: COc1cc(Cl)ccc1N(Cc1cccnc1)S(C)(=O)=O
Second: O=C(O)Cc1c(C(=O)c2cccnc2)[nH]c2cc(Cl)ccc12
The melting point of the first is lower: 121 to 123 °C for the first, 267 to 268 °C for the second.

Compared with `COC(=O)c1ccc(COC2CC(n3cc(F)c(=O)[nH]c3=O)OC2CO)cc1` (stereo not given), `COC(C)COC1C(n2cc(C)c(=O)[nH]c2=O)OC(COCc2ccccc2)(COS(=O)(=O)c2ccc(C)cc2)C1(CCO)OCc1ccccc1` (stereo not given) is lower in melting point: 169 to 170 °C for the first, 90 to 92 °C for the second.

Compared with `N#Cc1ccc(C(=O)N2C[C@H](OCc3ccccc3)C[C@H]2C(=O)O)cc1`, `O=C(O)c1ccc(Br)cc1C(=O)c1ccccc1` is higher in melting point: 58 to 60 °C for the first, 185 to 187 °C for the second.

First: CC(C)=NN=C(N)Nc1c(Cl)cccc1Cl
Second: Cc1cccc(CC(N)(CF)C(=O)O)c1O (stereo not given)
The melting point of the first is higher: 205 to 210 °C for the first, 168 °C for the second.

Compared with `CC1OC(n2cnc(C(N)=O)c2CC#N)C(O)C1O` (stereo not given), `COC(=O)c1cn(CCO)nc1[N+](=O)[O-]` is lower in melting point: 173 to 174 °C for the first, 93 to 95 °C for the second.

Compared with `CC(C)(c1ccccc1)c1cc(C(C)(C)c2ccccc2)c(O)cc1O`, `CNC(=O)c1ccc2c(c1C)OC(c1ccccc1)(c1ccccc1)O2` is higher in melting point: 130 °C for the first, 178 to 180 °C for the second.

First: OC(c1ccc(Cl)cc1)c1cccnc1-n1ccnc1 (stereo not given)
Second: CC(C(=O)O)c1ccc2c(c1)CCc1cccnc1S2 (stereo not given)
The melting point of the first is lower: 133 to 134 °C for the first, 181 to 183 °C for the second.

First: CNC(=NS(C)(=O)=O)NCCSCc1nccc(NC(N)=NCC(F)(F)F)n1
Second: NS(=O)(=O)c1ccc(-c2cnn(CC(F)(F)F)c(=O)c2-c2ccc(F)cc2)cc1
The melting point of the first is lower: 148 to 149 °C for the first, 193 to 195 °C for the second.

First: CCS(=O)(=O)c1ccc(C(=O)O)c(Cl)c1Cl
Second: CCOCn1nccc1C(=O)c1ccc(O)c(Cl)c1Cl
The melting point of the first is higher: 170 to 172 °C for the first, 115 to 117 °C for the second.

Compared with `Nc1cccc(C2=NNC(=O)C3CC23)c1` (stereo not given), `CC1NC(=O)NN=C1c1ccc(NC(=O)CO)cc1` (stereo not given) is higher in melting point: 192 to 193 °C for the first, 246 to 248 °C for the second.

First: COP(=S)(OC)Oc1nc(F)c(Cl)cc1Cl
Second: CC(O)c1cc2cc(O)c(Cl)c(Cl)c2s1 (stereo not given)
The melting point of the first is lower: less than 20 °C for the first, 173 to 174 °C for the second.

First: CNC(c1nc(-c2ccc3c(c2)Nc2ccccc2S3)cs1)C(C)C (stereo not given)
Second: Cc1ccc(-c2cc3ccccc3[nH]2)cc1
The melting point of the first is lower: 130 °C for the first, 213 to 215 °C for the second.

First: CCCCCNCc1ccc(-c2ccccc2S(=O)(=O)NC(C)(C)C)cc1
Second: CCOC(=O)c1c(C(C)(C)O)nc(CC)n1Cc1ccc(-c2ccccc2-c2nnn[nH]2)cc1
The melting point of the first is lower: 69 to 70 °C for the first, 166 to 167 °C for the second.

First: COC1CN(C(=O)Nc2ccc(C(F)(F)F)cc2)N=C1c1ccc(Cl)cc1 (stereo not given)
Second: NCCC(O)(c1ccc(Cl)cc1)c1ccc(-c2ccc(Br)cc2)cc1 (stereo not given)
The melting point of the first is higher: 185 to 186 °C for the first, 154 to 155 °C for the second.

Compared with `C=CC1CC2C3CCC4=CC(=O)CCC4=C3C(c3ccc(-c4ccc(OC)nc4)cc3)CC2(C)C1C(=O)C1CC1` (stereo not given), `CSc1ccc(C(=O)NCc2ccc3c(c2)C(=O)N(C2CCC(=O)NC2=O)C3=O)nc1` (stereo not given) is lower in melting point: 197 °C for the first, 185 to 187 °C for the second.

First: CS(=O)(=O)c1nccc(-n2cncn2)n1
Second: OCC1(O)CSC(=S)N1c1ccccn1 (stereo not given)
The melting point of the first is higher: 135 to 136 °C for the first, 134 to 135 °C for the second.

First: CC(C)c1cccc(C(C)C)c1NC(=O)NC1CCC(C(C)(C)C)CC1 (stereo not given)
Second: CC(C)c1cccc(C(C)C)c1NC(=O)N(Cc1ccc(N(C)C)cc1)c1ccc(Cl)cc1
The melting point of the first is higher: 264 to 266 °C for the first, 151 to 152 °C for the second.

First: CSc1cc(C)nc(SC)c1NC(=O)CCCCCCCSc1nc2c(C)c(Cl)cc(C(C)C)c2o1
Second: COc1cc(N)c(Cl)cc1C(=O)NCC1CCN(CCCCCNC(=O)c2ccc(C)cc2)CC1
The melting point of the first is lower: 128 to 131 °C for the first, 142 to 146 °C for the second.

First: Ic1cc(I)c(OCCC(c2ccccc2)c2ccccc2)c(I)c1
Second: c1ccc(-c2ncc(-c3cnc(-c4ccccc4)[nH]3)cn2)cc1
The melting point of the first is lower: 120 to 121 °C for the first, 253 °C for the second.

First: CC(=O)O[C@H]1CC[C@H](c2ccc(CCl)cc2)CC1
Second: Cc1ccn2ncc(C(=O)Nc3cc(Cl)ccc3OC3CCC(O)CC3)c2n1 (stereo not given)
The melting point of the first is lower: 87 to 89 °C for the first, 179 to 182 °C for the second.

First: CCOC(=O)C1COc2c(C(=O)c3ccccc3)cccc21 (stereo not given)
Second: O=C(CCc1ccc2c(c1)CCCC2)N1C(=O)OC[C@@H]1Cc1ccccc1
The melting point of the first is lower: 42 to 43 °C for the first, 92 to 93 °C for the second.

First: COC(=O)C1=CC[C@H]2[C@@](C=O)(CCC3C(C)(C)CCC[C@@]32C)C(=O)C1 (stereo not given in full)
Second: CC(=O)C#CC1CCC2C3CCC4CC(O)CCC4(C)C3CCC12C (stereo not given)
The melting point of the first is lower: 86 to 88 °C for the first, 148 to 150 °C for the second.

First: CCOC(=O)c1ccc2c(c1)CCCC2Cn1ccnc1S (stereo not given)
Second: CC(c1ccc(Br)cc1)N1CCC(NC(=O)CCc2nc(-c3ccccn3)no2)CC1 (stereo not given)
The melting point of the first is higher: 155 to 156 °C for the first, 142 to 143 °C for the second.

First: COc1ccc(Nc2ncccc2NS(=O)(=O)c2ccc(O)cc2)cc1
Second: Cc1cccn2cc(C(C)C)c(S(=O)(=O)c3ccc(O)cc3)c12
The melting point of the first is higher: 214 to 216 °C for the first, 191 to 193 °C for the second.

Compared with `COC(=O)CCCc1cc2nc(Cl)ccc2n1S(=O)(=O)c1ccc(Cl)cc1`, `Cc1ccc(S(=O)(=O)NCCCC(NS(=O)(=O)c2ccc(-c3ccc(Cl)cc3)cc2)C(=O)O)cc1` (stereo not given) is lower in melting point: 108 °C for the first, 62 °C for the second.

First: O=C(C=Cc1cnc2ccccc2c1)NCCCSc1ccncc1
Second: CC(C)N1C(=O)c2cnc(-c3ccccc3)nc2N(C(=O)CCl)c2ccccc21
The melting point of the first is lower: 154 to 155 °C for the first, 204 to 205 °C for the second.

First: O=C(O)[C@H](Cc1ccccc1)NC(=O)N1CCOCC1
Second: CC(=O)NC1=NN(c2ccccc2)C(C)C1 (stereo not given)
The melting point of the first is lower: 57 to 60 °C for the first, 144 to 146 °C for the second.

Compared with `Cc1ccc2c(n1)C(=O)N(c1c(Cl)ccc(C)c1C#N)C2=O`, `CN1C(=O)c2[nH]c3cc(Cl)ccc3c2Oc2ccccc21` is higher in melting point: 173 to 176 °C for the first, 306 to 307 °C for the second.

First: CC(=O)Oc1ccc(-c2ccc(C=C(Br)Br)s2)cc1
Second: CSc1ccc(Oc2cccc(C=O)n2)cc1
The melting point of the first is higher: 115 to 116 °C for the first, 60 to 63 °C for the second.

Compared with `COC(=O)N1C[C@@H](C#N)[C@H](c2ccc(OC)c(OC3CCCC3)c2)C1` (relative stereo), `CCOC(=O)NCC(O)c1ccc(OC)c(OC)c1` (stereo not given) is lower in melting point: 101 to 104 °C for the first, 90 to 92 °C for the second.

First: CCOC(=O)C1=C(C)NC(COCc2cccnc2)=C(C(=O)OCC)C1c1ccccc1[N+](=O)[O-] (stereo not given)
Second: CCOC(=O)c1[nH]c2ccc(C(O)(C(F)(F)F)C(F)(F)F)cc2c1-c1ccccc1
The melting point of the first is lower: 133 to 135 °C for the first, 185 to 193 °C for the second.

First: COc1ccc(-n2c(=O)n(C)c(=O)n(CC(C)(C)C)c2=O)cc1
Second: COc1ccc2c(c1)C1=C[C@@H](C(=O)NC(C)(C)C)CN(C)[C@@H]1CO2 (relative stereo)
The melting point of the first is lower: 134 °C for the first, 188 to 189 °C for the second.

Compared with `CN(c1ncnc2c1ncn2Cc1ccccc1F)n1cccc1`, `CN1CCN(c2cccc3ccc(Nc4ccccc4[N+](=O)[O-])cc23)CC1` is lower in melting point: 147 to 149 °C for the first, 87 to 94 °C for the second.

First: Cn1nc(-c2cccs2)c(N)c1N
Second: CC(=O)c1cc2cccc(NS(=O)(=O)c3cccs3)c2[nH]1
The melting point of the first is lower: 154 to 155 °C for the first, 241 to 243 °C for the second.

First: O=C(c1sc2c(ccc(=O)n2-c2ccccc2)c1Br)N1CC(OC2CCCCO2)C1 (stereo not given)
Second: Cc1cc(C)cc(C(=O)N2CCC(N3CCC(NCCc4ccccc4)CC3)CC2Cc2ccccc2)c1 (stereo not given)
The melting point of the first is higher: 162 °C for the first, 67.8 °C for the second.

First: CCN(CC)CCOc1ccc(-n2c(-c3ccccc3)cc(=O)c3ccccc32)cc1
Second: COc1ccc(Cc2cc3ccccc3c(=O)[nH]2)cc1
The melting point of the first is lower: 115 to 117 °C for the first, 216 to 218 °C for the second.

`Nc1nc(O)c2c(n1)NCC(CCCCCC(=O)N[C@@H](CCC(=O)O)C(=O)O)C2` (stereo not given in full) and `CC(=CC(=O)N1CCCC1C(=O)O)C(=O)c1ccc(Br)cc1` (stereo not given) cannot be ordered by melting point: 144 °C for the first, 137 to 144 °C for the second.

First: CC(C)(C)c1cc(C=Cc2n[nH]c(=O)[nH]2)cc(C(C)(C)C)c1O
Second: NS(=O)(=O)c1cc2[nH]c(CO)nc2cc1Cl
The melting point of the first is higher: 280 to 284 °C for the first, 247 to 250 °C for the second.

First: NC(=Nc1ccc(N2CCN(C(=O)NCCCCC3CCSS3)CC2)cc1)c1cccs1 (stereo not given)
Second: CC1CCN(C2=Nc3cc(Br)ccc3N3CCc4cccc2c43)CC1
The melting point of the first is higher: 201 to 202 °C for the first, 177 to 179 °C for the second.

First: C=CCOc1cc2c(cc1CC=C)CCC(=O)N2
Second: C=Cc1cc(Cl)cc2[nH]c(=O)c(-c3ccccc3)c(O)c12
The melting point of the first is lower: 137 to 139 °C for the first, 240 to 244 °C for the second.

Compared with `CCc1cccc(C2(O)C3CC4CC(C3)CC2C4)c1` (stereo not given), `Cc1nc2n(c(=O)c1CCN1CCC(c3noc4cc(F)ccc34)CC1)CC(O)CC2` (stereo not given) is higher in melting point: 63 to 65 °C for the first, 156 °C for the second.

Compared with `CCCc1c(OCC(O)COc2ccc3c(=O)cc(C=CC(=O)OCC)oc3c2CCC)ccc(C(C)=O)c1O` (stereo not given), `CCCc1c(OCc2nnn[nH]2)ccc(C(=O)c2ccccc2O)c1O` is higher in melting point: 125 to 127 °C for the first, 186 to 187 °C for the second.

First: CC(C)(C)OC(=O)c1ccc(N(Cc2ccc(C(=O)O)cc2)Cc2cc(Br)ccc2OCc2ccccc2)cc1
Second: CN(c1ccc(Cl)cc1)S(=O)(=O)c1cccc(NC(=O)c2ccc(Br)cc2)c1
The melting point of the first is lower: 110 °C for the first, 187 to 189 °C for the second.

First: CCCOc1ccc(C(O)CN2CCOCC2)cc1-c1nc2c(CCC)nn(C)c2c(=O)[nH]1 (stereo not given)
Second: Fc1ccc2[nH]cc(C3=CCN(CC4CCc5ccccc5O4)CC3)c2c1 (stereo not given)
The melting point of the first is lower: 104 to 105 °C for the first, 172 to 175 °C for the second.

Compared with `COc1ccc2nc(CBr)ccc2c1`, `O=c1[nH]c2ccccc2cc1Br` is higher in melting point: 103 °C for the first, 263 to 265 °C for the second.

First: CON(C)C(=O)c1cc(C)c(C(c2cc(F)ccc2F)S(=O)(=O)c2ccc(F)cc2)cn1 (stereo not given)
Second: CC(C)N(c1cccc2cc(C(N)=S)[nH]c12)S(=O)(=O)c1cccs1
The melting point of the first is lower: 156 to 158 °C for the first, 204 to 205 °C for the second.

Compared with `CN(CCc1ccc(Nc2ncc3c(n2)-c2ccccc2C(c2cccc(Br)c2)C3)cc1)CCc1ccccn1` (stereo not given), `O=C(O)C(Cc1ccccc1)Oc1ccc(-c2ccc(-c3c(Cc4ccccc4)oc4ccccc34)cc2)cc1` (stereo not given) is higher in melting point: 75 to 77 °C for the first, 164 to 166 °C for the second.

First: COc1cc2c(cc1C#N)[C@@H](O)[C@H](Br)C(C)(C)O2 (relative stereo)
Second: Cc1[nH]c(C=O)c(C)c1CNC(=O)C(F)(F)F
The melting point of the first is lower: 144 to 146 °C for the first, 200 °C for the second.
